Experimental data as given in patent US20250177425A1, “SAIKOSAPONIN C AS COMPOSITION FOR TREATING OR PREVENTING AGE-RELATED VASCULAR DISEASES INCLUDING ARTERIOSCLEROSIS” (AGINGTARGET, INC., priority 2022, published 2025).

How the values were obtained:
Assay type in all cases: cell-based, human
HUVEC [1] = test: Mechanism study: SA-β-gal staining with NOS and Sirt1 inhibitors; conditions: 20 μM pretreatment 2 hours, 33 mM high glucose 72 hours
Method: Similar to Experimental Example 1, a high-fat diet evaluation system at the cellular level was established. Specifically, […], which are vascular endothelial cells, were pretreated with Saikosaponin C at a concentration of 20 μM for 2 hours, and then treated with high glucose at a concentration of 33 mM for 72 hours (for SA-β-gal staining) or 36 hours (for the analysis of enzyme activity of NOS and Sirt1). Then, SA-β-gal staining, NOS enzyme activity, and Sirt1 enzyme activity were analyzed. To analyze whether or not NOS and Sirt1 protein are involved in the anti-vascular aging effect of Saikosaponin C and the relationship between NOS and Sirt1 protein, L-NG-nitro arginine methyl ester (L-NAME) (5 mM), an inhibitor of NOS, and EX-527 (10 μM), an inhibitor of Sirt1 protein, were used. […] The senescence of vascular endothelial cells was assessed through intracellular SA-β-gal staining (FIG. 8A). The activities of NOS (FIG. 8B) and Sirt1 protein (FIG. 8C) were measured using the NOS Activity Assay Kit and the Sirt1 Activity Assay Kit, respectively.

[2] = system: PAI-1, ICAM-1, and VCAM-1 in HPAEC; test: Western blotting of vascular senescence marker proteins; conditions: 5 μM and 20 μM pretreatment 2 hours, 33 mM high glucose 48 hours, dose-dependent
Method: (§1) Similar to Experimental Example 1, a high-fat diet evaluation system at the cellular level was established.
(§2) Specifically, two types of vascular endothelial cells, namely, HUVEC and HPAEC cells, were pretreated with Saikosaponin C at concentrations of 5 μM and 20 μM for 2 hours, and then treated with high glucose at a concentration of 33 mM for 72 hours (for SA-β-gal staining) or 48 hours (for vascular senescence marker protein analysis). Then, the degree of cellular senescence was measured through SA-β-gal staining and measured as the ratio of the total cells to cells stained in blue (SA-β-gal positive). In addition, the expression of vascular senescence marker proteins such as PAI-1, ICAM-1, and VCAM-1 was analyzed.
(§3) Specifically, the senescence of vascular endothelial cells was evaluated by SA-β-gal staining to measure the activity of β-galactosidase, which is an enzyme present in the lysosome, an organelle within the cell (FIG. 3C and FIG. 3D) and this was represented as a graph (FIG. 3A and FIG. 3B). In addition, FIGS. 3E and 3F show the results of Western blotting to determine the expression of vascular senescence marker proteins such as PAI-1, ICAM-1, and VCAM-1 in two types of vascular endothelial cells (HUVEC, HPAEC).

[3] = system: PAI-1, ICAM-1, and VCAM-1 in HUVEC; test: as above; conditions: 5 μM and 20 μM pretreatment 2 hours, 33 mM high glucose 48 hours, dose-dependent
Method: as §1, §2, §3

HUVEC [4] = test: MTT assay, high glucose-induced growth inhibition; conditions: 5 μM and 20 μM pretreatment 2 hours, 33 mM high glucose 72 hours, dose-dependent
Method: (§4) A high-fat diet test system at the cellular level was established using 33 mM high glucose (HG), which is 6 times the standard glucose concentration of 5.5 mM in the vascular endothelial cell culture medium.
(§5) Specifically, two types of endothelial cells, namely, human umbilical vein endothelial cells (HUVECs) and human pulmonary artery endothelial cells (HPAECs), were pretreated with 5 μM and 20 μM of Saikosaponin C (SSc) for 2 hours, and then treated with 33 mM of high glucose for 72 hours. Then, cell growth was analyzed using the MTT assay, which measures the mitochondrial metabolic capacity of living cells.
(§6) Endothelial cell growth was assessed by measuring the absorbance of MTT formazan at a wavelength of 590 nm.

HPAEC [5] = test: MTT assay, high glucose-induced growth inhibition; conditions: 5 μM and 20 μM pretreatment 2 hours, 33 mM high glucose 72 hours, dose-dependent
Method: as §4, §5, §6

HUVEC [6] = test: SA-β-gal staining, high glucose-induced senescence; conditions: 5 μM and 20 μM pretreatment 2 hours, 33 mM high glucose 72 hours, dose-dependent
Method: as §1, §2, §3

HPAEC [7] = test: SA-β-gal staining, high glucose-induced senescence; conditions: 5 μM and 20 μM pretreatment 2 hours, 33 mM high glucose 72 hours, dose-dependent
Method: as §1, §2, §3

Question: What does the source list for CC1O[C@@H](O[C@@H]2C(CO[C@@H]3OC(CO)[C@@H](O)C(O)C3O)O[C@@H](O[C@H]3CC[C@]4(C)[C@H]5C=C[C@]67OC[C@@]8(CCC(C)(C)C[C@H]86)[C@@H](O)C[C@@]7(C)[C@]5(C)CC[C@H]4C3(C)C)C(O)C2O)C(O)C(O)[C@H]1O (stereo partly shown) [Saikosaponin C]?
Answer: high glucose-induced SA-β-gal positive HUVEC cells (HUVEC [1]): reduced; expression of vascular senescence marker proteins PAI-1, ICAM-1, and VCAM-1 [2]: reduced; expression of vascular senescence marker proteins PAI-1, ICAM-1, and VCAM-1 [3]: reduced; high glucose-induced cell growth inhibition (MTT) (HUVEC [4]): significantly alleviated; high glucose-induced cell growth inhibition (MTT) (HPAEC [5]): significantly alleviated; high glucose-induced SA-β-gal positive cells (HUVEC [6]): significantly reduced; high glucose-induced SA-β-gal positive cells (HPAEC [7]): significantly reduced
